# Results published in patent US11464733B2, “Enema for rectal application” (Dr. Falk Pharma GmbH, priority 2016, dated 2022).
# Columns and labels:
# [1] = test system: patients with active ulcerative colitis; test: Same trial: safety, adverse events; type: in vivo, human
# Description: (§1) Superiority of the budesonide compared with placebo for mucosal healing as the primary endpoint are investigated for patients with active ulcerative colitis when budesonide 2 mg is rectally administered twice a day for 6 weeks by a double-blind comparative study with placebo as a control, and the safety thereof was investigated.
# (§2) Furthermore, the efficacy and safety of administering were investigated, to patients with inflammatory bowel disease who have been administered 1.5 to 2.5 mg of budesonide twice a day for 6 weeks and shown signs of healing but no mucous membrane healing, 1.5 to 2.5 mg of budesonide twice a day for an additional 6 weeks (for a total of 12 weeks) (clinical trial number: Japic CTI—142704).
# (§3) The test drug or control drug is rectally administered twice a day (once in the morning and once in the evening), after defecation, if possible. The number of injections per dose is one, the administration period is 6 weeks, if no mucous membrane healing occurred (an endoscope view score of 0 points), an administration period of 12 weeks can be used, and the drug is administered until the evening before the evaluation. The dose of budesonide in each group is 4 mg/day for the twice a day group, and 0 mg/day for the placebo group. The subjects with a 12-week administration period included 20 subjects in the budesonide administered group, and 18 subjects in the placebo group.
# serous cortisol = test: Same trial: blood biochemistry check, serous cortisol density; type: in vivo, human
# [2] = test system: serous ACTH (adrenocorticotropic hormone); test: Same trial: blood biochemistry check, serous ACTH density; type: in vivo, human
# [3] = cited from earlier work
# [4] = test system: patients with active ulcerative colitis; test: Placebo-controlled double-blind trial: mucosal endoscopy, MMDAI endoscopic finding score; type: in vivo, human; settings: for Number of subjects with MMDAI endoscopic finding score 0 / Number of subjects with MMDAI endoscopic finding score 1 / Number of subjects with MMDAI endoscopic finding score 2 / Number of subjects with MMDAI endoscopic finding score 3 / Percentage of subjects with MMDAI endoscopic finding score 0 / Percentage of subjects with MMDAI endoscopic finding score 1 / Percentage of subjects with MMDAI endoscopic finding score 2 / Percentage of subjects with MMDAI endoscopic finding score 3: 2 mg rectal foam twice a day, 20 cases
# Description: Placebo-controlled randomized double-blind multicenter collaborative parallel group comparison test
# as §1, §2
# For the trial, an aerosol with fixed dose injection type for rectal injection (rectal foaming agent) is used as a test drug, in which 25 mL (1.35 g) of white creamy foam containing 2 mg of budesonide is released by one injection. As a remission induction therapeutic agent of ulcerative colitis in active phase where the lesion is confined to the rectum and sigmoid colon, the aerosol for rectal injection is approved in Europe at a dosage and dose of budesonide 2 mg once a day (trade name: Budenofalk 2 mg/dose rectal foam, manufactured by Dr. Falk Pharma GmbH).
# The subjects are ulcerative colitis patients in active phase, and are divided into a group administered the test drug twice a day (hereafter, the budesonide-administered group), and a group administered the control drug (hereinafter, the placebo group).
# as §3
# The score by the doctor was used for the initial test, and after an administration period of 6 weeks, whether the prescription was continued for 6 more weeks or not. The score by the central judgment committee was used as the judgement of effectiveness. […] Furthermore, the change of the endoscope finding score from 6th week to 12th week of each subject of placebo group is shown in Table 2, and the change in the endoscope finding score from 6th week to 12th week of each subject of the budesonide-administered group is shown in Table 3.
# acidophilic leucocyte = test: Same trial: hematology checks, leukocyte fractionation; type: in vivo, human
# [5] = 0th week (before prescription), 20 cases analysed
# [6] = 12th week (prescription end), 19 cases analysed
# [7] = After observation, 20 cases analysed
# [8] = 0 week (before administration), 12-week subjects
# [9] = Table 3 total over 6th week scores, of 20
# [10] = Table 3 total over 6th week scores, unmeasured listed separately, of 20
# [11] = change from 6th to 12th week, 2 mg twice a day, of 20
compound,measurement,setting,value
"CCCC1O[C@@H]2C[C@H]3[C@@H]4CCC5=CC(=O)C=C[C@]5(C)[C@H]4[C@@H](O)C[C@]3(C)[C@]2(C(=O)CO)O1 (mixture of isomers) [Budesonide, (+)-[(RS)-16α,17α-Butylidenedioxy-11β,21-dihydroxy-1,4-pregnadiene-3,20-dione]]","Death, severe adverse events or serious adverse event",[1]; 12 week administration,"no death, severe adverse events or serious adverse event, were observed"
same,Tolerability,"[1]; budesonide 2 mg, rectal administration twice a day for 6 weeks (so in the source), patients of ulcerative colitis",acceptable
same,Manifestation of adverse events as a result of the drug tested,[1]; versus placebo group,couldn't admit between Placebo group
same,Manifested frequency of the adverse event,[1]; versus placebo group,higher than in the placebo group
same,Serous cortisol: applicable examples (cases below standard value),serous cortisol; [5],0
same,Serous cortisol: percentage of cases below standard value,serous cortisol; [5],0.0%
same,Serous cortisol: percentage of cases below standard value,"serous cortisol; 0th week (before prescription), 20 cases analysed, listed as budesonide",0%
same,Serous cortisol density,serous cortisol; 6th week and 12th week versus 0th week (before prescription),low compared with the 0th week
same,Serous cortisol: applicable examples (cases below standard value),serous cortisol; [6],11
same,Serous cortisol: percentage of cases below standard value,serous cortisol; [6],57.9%
same,Serous cortisol: applicable examples (cases below standard value),serous cortisol; [7],2
same,Serous cortisol: percentage of cases below standard value,serous cortisol; [7],10.0%
same,Recovery of subjects with both serous cortisol and serous ACTH density below the standard value in the 12th week,serous cortisol; by the after observation,mostly recovered to within the standard value
same,Serous cortisol density after end of administration,serous cortisol; observed for 2-4 weeks after the end of the 12-week administration period,reverting to the value in the 0th week
same,Serous ACTH: applicable examples (cases below standard value),[2]; [5],3
same,Serous ACTH: percentage of cases below standard value,[2]; [5],15.0%
same,Serous ACTH: applicable examples (cases below standard value),[2]; [6],8
same,Serous ACTH: percentage of cases below standard value,[2]; [6],42.1%
same,Serous ACTH: applicable examples (cases below standard value),[2]; [7],2
same,Serous ACTH: percentage of cases below standard value,[2]; [7],10.0%
same,Solubility in water,[3],low solubility in water
same,Number of subjects with MMDAI endoscopic finding score 0,[4]; [8],0 subjects
same,Number of subjects with MMDAI endoscopic finding score 1,[4]; [8],3 subjects
same,Number of subjects with MMDAI endoscopic finding score 2,[4]; [8],16 subjects
same,Number of subjects with MMDAI endoscopic finding score 3,[4]; [8],1 subjects
same,Percentage of subjects with MMDAI endoscopic finding score 0,[4]; [8],(0.0) %
same,Percentage of subjects with MMDAI endoscopic finding score 1,[4]; [8],(15.0) %
same,Percentage of subjects with MMDAI endoscopic finding score 2,[4]; [8],(80.0) %
same,Percentage of subjects with MMDAI endoscopic finding score 3,[4]; [8],(5.0) %
same,"Percentage with an endoscope view score of 0 in the 12th week, except for non-measured group","[4]; 6/15 examples, placebo 0% (0/13), administration continued for 6 more weeks",40.0%
same,Number of subjects with MMDAI endoscopic finding score 0,"[4]; 6th week, 12-week subjects",4 subjects
same,Number of subjects with MMDAI endoscopic finding score 1,"[4]; 6th week, 12-week subjects",14 subjects
same,Number of subjects with MMDAI endoscopic finding score 2,"[4]; 6th week, 12-week subjects",2 subjects
same,Number of subjects with MMDAI endoscopic finding score 3,"[4]; 6th week, 12-week subjects",0 subjects
same,Percentage of subjects with MMDAI endoscopic finding score 1,"[4]; 6th week, 12-week subjects",(70.0) %
same,Number of subjects with MMDAI endoscopic finding score 0,[4]; 12th week (Table 1),6 subjects
same,Number of subjects with MMDAI endoscopic finding score 1,[4]; 12th week (Table 1),8 subjects
same,Number of subjects with MMDAI endoscopic finding score 2,[4]; 12th week (Table 1),6 subjects
same,Number of subjects with MMDAI endoscopic finding score 3,[4]; 12th week (Table 1),0 subjects
same,Percentage of subjects with MMDAI endoscopic finding score 0,[4]; 12th week (Table 1),(30.0) %
same,Percentage of subjects with MMDAI endoscopic finding score 1,[4]; 12th week (Table 1),(40.0) %
same,Percentage of subjects with MMDAI endoscopic finding score 2,[4]; 12th week (Table 1),(30.0) %
same,Percentage of subjects with MMDAI endoscopic finding score 3,[4]; 12th week (Table 1),(0.0) %
same,"Number of subjects, 12th week Unmeasured, Total",[4]; [9],5 subjects
same,"Percentage of subjects, 12th week Unmeasured, Total",[4]; [9],(25.0) %
same,"Number of subjects, endoscope finding score 12th week 0, Total",[4]; [10],6 subjects
same,"Number of subjects, endoscope finding score 12th week 1, Total",[4]; [10],7 subjects
same,"Number of subjects, endoscope finding score 12th week 2, Total",[4]; [10],2 subjects
same,"Number of subjects, endoscope finding score 12th week 3, Total",[4]; [10],0 subjects
same,"Percentage of subjects, endoscope finding score 12th week 0, Total",[4]; [10],(30.0) %
same,"Percentage of subjects, endoscope finding score 12th week 1, Total",[4]; [10],(35.0) %
same,"Percentage of subjects, endoscope finding score 12th week 2, Total",[4]; [10],(10.0) %
same,"Percentage of subjects, endoscope finding score 12th week 3, Total",[4]; [10],(0.0) %
same,"Number of subjects, endoscope finding score 6th week 0 / 12th week 0",[4]; [11],0 subjects
same,"Number of subjects, endoscope finding score 6th week 0 / 12th week 1",[4]; [11],1 subjects
same,"Number of subjects, endoscope finding score 6th week 0 / 12th week 2",[4]; [11],0 subjects
same,"Number of subjects, endoscope finding score 6th week 0 / 12th week 3",[4]; [11],0 subjects
same,"Number of subjects, endoscope finding score 6th week 0 / 12th week Unmeasured",[4]; [11],3 subjects
same,"Number of subjects, endoscope finding score 6th week 1 / 12th week 0",[4]; [11],5 subjects
same,"Number of subjects, endoscope finding score 6th week 1 / 12th week 1",[4]; [11],6 subjects
same,"Number of subjects, endoscope finding score 6th week 1 / 12th week 2",[4]; [11],1 subjects
same,"Number of subjects, endoscope finding score 6th week 1 / 12th week 3",[4]; [11],0 subjects
same,"Number of subjects, endoscope finding score 6th week 1 / 12th week Unmeasured",[4]; [11],2 subjects
same,"Number of subjects, endoscope finding score 6th week 2 / 12th week 0",[4]; [11],1 subjects
same,"Number of subjects, endoscope finding score 6th week 2 / 12th week 1",[4]; [11],0 subjects
same,"Number of subjects, endoscope finding score 6th week 2 / 12th week 2",[4]; [11],1 subjects
same,"Number of subjects, endoscope finding score 6th week 2 / 12th week 3",[4]; [11],0 subjects
same,"Number of subjects, endoscope finding score 6th week 2 / 12th week Unmeasured",[4]; [11],0 subjects
same,"Number of subjects, endoscope finding score 6th week 3 / 12th week 0",[4]; [11],0 subjects
same,"Number of subjects, endoscope finding score 6th week 3 / 12th week 1",[4]; [11],0 subjects
same,"Number of subjects, endoscope finding score 6th week 3 / 12th week 2",[4]; [11],0 subjects
same,"Number of subjects, endoscope finding score 6th week 3 / 12th week 3",[4]; [11],0 subjects
same,"Number of subjects, endoscope finding score 6th week 3 / 12th week Unmeasured",[4]; [11],0 subjects
same,"Percentage of subjects, endoscope finding score 6th week 0 / 12th week 0",[4]; [11],0.0%
same,"Percentage of subjects, endoscope finding score 6th week 0 / 12th week 1",[4]; [11],5.0%
same,"Percentage of subjects, endoscope finding score 6th week 0 / 12th week 2",[4]; [11],0.0%
same,"Percentage of subjects, endoscope finding score 6th week 0 / 12th week 3",[4]; [11],0.0%
same,"Percentage of subjects, endoscope finding score 6th week 0 / 12th week Unmeasured",[4]; [11],15.0%
same,"Percentage of subjects, endoscope finding score 6th week 1 / 12th week 1",[4]; [11],(30.0) %
same,"Percentage of subjects, endoscope finding score 6th week 1 / 12th week 3",[4]; [11],(0.0) %
same,"Percentage of subjects, endoscope finding score 6th week 1 / 12th week Unmeasured",[4]; [11],(10.0) %
same,"Percentage of subjects, endoscope finding score 6th week 2 / 12th week 0",[4]; [11],5.0%
same,"Percentage of subjects, endoscope finding score 6th week 2 / 12th week 1",[4]; [11],0.0%
same,"Percentage of subjects, endoscope finding score 6th week 2 / 12th week 2",[4]; [11],5.0%
same,"Percentage of subjects, endoscope finding score 6th week 2 / 12th week 3",[4]; [11],0.0%
same,"Percentage of subjects, endoscope finding score 6th week 2 / 12th week Unmeasured",[4]; [11],0.0%
same,"Percentage of subjects, endoscope finding score 6th week 3 / 12th week 0",[4]; [11],0.0%
same,"Percentage of subjects, endoscope finding score 6th week 3 / 12th week 1",[4]; [11],0.0%
same,"Percentage of subjects, endoscope finding score 6th week 3 / 12th week 2",[4]; [11],0.0%
same,"Percentage of subjects, endoscope finding score 6th week 3 / 12th week 3",[4]; [11],0.0%
same,"Percentage of subjects, endoscope finding score 6th week 3 / 12th week Unmeasured",[4]; [11],0.0%
same,Percentage of the acidophilic leucocyte of leukocyte fractionation,acidophilic leucocyte; 4th week to 12th week compared with 0th week and placebo group,decrease
same,Other items of hematology and blood biochemistry checks,acidophilic leucocyte; in vivo,no clear fluctuation in other items could be seen
